# Tests used:
# rice = experiment: Test B flood test rice; format: in vivo, Oryza sativa
# Procedure, shortened: (§1)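 Read-out is a visual response score from 0 (no effect) to 10 (complete control), assigned by comparison with untreated controls. Treatment was applied at the 2-leaf stage, and plants stayed in the greenhouse for twelve to sixteen days before scoring.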
# sugar beet = experiment: Test B pre/postemergence sugar beet; format: in vivo, Beta vulgaris
# Procedure, shortened: (§2)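 Herbicidal effect was estimated by eye on a ten-point control scale after plants spent twelve to sixteen days in a greenhouse following soil or foliar treatment. Foliar sprays targeted plants at one to four leaves; all doses were formulated in a non-phytotoxic solvent with surfactant.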
# soybean = experiment: Test B pre/postemergence soybean; format: in vivo, Glycine max
# Procedure, shortened: as §2
# blackgrass = experiment: Test B pre/postemergence blackgrass; format: in vivo, Alopecurus myosuroides
# Procedure, shortened: as §2
# surinam grass = experiment: Test B pre/postemergence surinam grass; format: in vivo, Brachiaria decumbens
# Procedure, shortened: as §2
# corn = experiment: Test B pre/postemergence corn; format: in vivo, Zea mays
# Procedure, shortened: as §2
# purple nutsedge = experiment: Test B pre/postemergence purple nutsedge; format: in vivo, Cyperus rotundus
# Procedure, shortened: as §2
# velvetleaf = experiment: Test B pre/postemergence velvetleaf; format: in vivo, Abutilon theophrasti
# Procedure, shortened: as §2
# rape = experiment: Test B pre/postemergence rape; format: in vivo, Brassica napus
# Procedure, shortened: as §2
# giant foxtail = experiment: Test B pre/postemergence giant foxtail; format: in vivo, Setaria faberii
# Procedure, shortened: as §2
# pigweed = experiment: Test B pre/postemergence pigweed; format: in vivo, Amaranthus retroflexus
# Procedure, shortened: as §2
# bedstraw = experiment: Test B pre/postemergence bedstraw; format: in vivo, Galium aparine
# Procedure, shortened: as §2
# duck salad = experiment: Test B flood test duck salad; format: in vivo, Heteranthera limosa
# Procedure, shortened: as §1
# bamyardgrass = experiment: Test B flood test barnyardgrass; format: in vivo, Echinochloa crus-galli
# Procedure, shortened: as §1
# smallflower flatsedge = experiment: Test B flood test smallflower flatsedge; format: in vivo, Cyperus difformis; conditions: for S. Flatsedge plant response rating: scale of 0 to 10 where 0 is no effect and 10 is complete control
# Procedure, shortened: as §1
# morningglory = experiment: Test B pre/postemergence morningglory; format: in vivo, Ipomoea hederacea
# Procedure, shortened: as §2
# [1] = Postemergence (flood test species), Rate 125 g/ha, scale of 0 to 10 where 0 is no effect and 10 is complete control
# [2] = Rate 31 g/ha, Postemergence section (flood test species), scale 0 to 10
# [3] = Rate 62 g/ha, Postemergence section, flood test species, scale of 0 to 10 where 0 is no effect and 10 is complete control
# [4] = Rate 250 g/ha, Postemergence (flood test), scale 0 to 10, 0 is no effect, 10 is complete control
# [5] = Postemergence, Rate 125 g/ha, scale of 0 to 10 where 0 is no effect and 10 is complete control
# [6] = Preemergence, Rate 31 g/ha, visual rating, scale 0 to 10 (0 no effect, 10 complete control)
# [7] = Preemergence, Rate 62 g/ha, scale 0 to 10 (0 no effect, 10 complete control)
# [8] = Preemergence, Rate 125 g/ha, 0 is no effect, 10 is complete control
# [9] = Preemergence, Rate 250 g/ha, scale 0 to 10, 0 is no effect, 10 is complete control
# [10] = Rate 62 g/ha, Postemergence, scale of 0 to 10 where 0 is no effect and 10 is complete control
# [11] = Rate 250 g/ha, Postemergence, scale 0 to 10, 0 is no effect, 10 is complete control
# [12] = Rate 31 g/ha, Postemergence, scale 0 to 10
smiles,measurement,setting,value
Cc1noc(C)c1-n1c(=O)on(C(=O)N(c2ccc(F)cc2)C(C)C)c1=O [Compound 155],Rice plant response rating,rice; [1],0
same,Rice plant response rating,rice; [2],0
same,Rice plant response rating,rice; [3],0
same,"Plant response rating, Rice",rice; [4],0
same,Sugarbeets plant response rating,sugar beet; [5],0
same,Sugarbeets plant response rating,sugar beet; [6],0
same,Sugarbeets plant response rating,sugar beet; [7],0
same,Sugarbeets plant response rating (0 to 10 scale),sugar beet; [8],0
same,Sugarbeets plant response rating,sugar beet; [9],0
same,Sugarbeets plant response rating,sugar beet; [10],0
same,"Plant response rating, Sugarbeets",sugar beet; [11],0
same,Soybean plant response rating,soybean; [5],1
same,Soybean plant response rating,soybean; [6],0
same,Soybean plant response rating,soybean; [7],0
same,Soybean plant response rating (0 to 10 scale),soybean; [8],0
same,Soybean plant response rating,soybean; [9],0
same,Soybean plant response rating,soybean; [10],1
same,"Plant response rating, Soybean",soybean; [11],1
same,Blackgrass plant response rating,blackgrass; [5],0
same,Blackgrass plant response rating,blackgrass; [6],0
same,Blackgrass plant response rating,blackgrass; [7],0
same,Blackgrass plant response rating (0 to 10 scale),blackgrass; [8],0
same,Blackgrass plant response rating,blackgrass; [9],2
same,Blackgrass plant response rating,blackgrass; [12],0
same,Blackgrass plant response rating,blackgrass; [10],0
same,"Plant response rating, Blackgrass",blackgrass; [11],2
same,B. signalgrass plant response rating,surinam grass; [5],0
same,B. signalgrass plant response rating,surinam grass; [6],0
same,B. signalgrass plant response rating,surinam grass; [7],0
same,B. signalgrass plant response rating (0 to 10 scale),surinam grass; [8],0
same,B. signalgrass plant response rating,surinam grass; [9],0
same,B. signalgrass plant response rating,surinam grass; [12],0
same,B. signalgrass plant response rating,surinam grass; [10],0
same,"Plant response rating, B. signalgrass",surinam grass; [11],0
same,Corn plant response rating,corn; [5],0
same,Corn plant response rating,corn; [6],0
same,Corn plant response rating,corn; [7],0
same,Corn plant response rating (0 to 10 scale),corn; [8],0
same,Corn plant response rating,corn; [9],0
same,Corn plant response rating,corn; [12],0
same,Corn plant response rating,corn; [10],0
same,"Plant response rating, Corn",corn; [11],2
same,Nutsedge plant response rating,purple nutsedge; [5],0
same,Nutsedge plant response rating,purple nutsedge; [6],0
same,Nutsedge plant response rating,purple nutsedge; [7],0
same,Nutsedge plant response rating (0 to 10 scale),purple nutsedge; [8],0
same,Nutsedge plant response rating,purple nutsedge; [9],0
same,Nutsedge plant response rating,purple nutsedge; [12],0
same,Nutsedge plant response rating,purple nutsedge; [10],0
same,"Plant response rating, Nutsedge",purple nutsedge; [11],0
same,Velvetleaf plant response rating,velvetleaf; [6],0
same,Velvetleaf plant response rating,velvetleaf; [7],0
same,Velvetleaf plant response rating (0 to 10 scale),velvetleaf; [8],0
same,Velvetleaf plant response rating,velvetleaf; [9],0
same,Velvetleaf plant response rating,velvetleaf; [10],0
same,"Plant response rating, Velvetleaf",velvetleaf; [11],0
same,Rape plant response rating,rape; [5],0
same,Rape plant response rating,rape; [6],0
same,Rape plant response rating,rape; [7],0
same,Rape plant response rating (0 to 10 scale),rape; [8],0
same,Rape plant response rating,rape; [9],0
same,Rape plant response rating,rape; [12],0
same,Rape plant response rating,rape; [10],0
same,"Plant response rating, Rape",rape; [11],0
same,Giant foxtail plant response rating,giant foxtail; [5],3
same,Giant foxtail plant response rating,giant foxtail; [6],0
same,Giant foxtail plant response rating,giant foxtail; [7],0
same,Giant foxtail plant response rating (0 to 10 scale),giant foxtail; [8],0
same,Giant foxtail plant response rating,giant foxtail; [9],2
same,Giant foxtail plant response rating,giant foxtail; [12],0
same,Giant foxtail plant response rating,giant foxtail; [10],1
same,"Plant response rating, Giant foxtail",giant foxtail; [11],6
same,Redroot pigweed plant response rating,pigweed; [5],0
same,Redroot pigweed plant response rating,pigweed; [6],0
same,Redroot pigweed plant response rating,pigweed; [7],0
same,Redroot pigweed plant response rating (0 to 10 scale),pigweed; [8],0
same,Redroot pigweed plant response rating,pigweed; [9],3
same,Redroot pigweed plant response rating,pigweed; [12],0
same,Redroot pigweed plant response rating,pigweed; [10],0
same,"Plant response rating, Redroot pigweed",pigweed; [11],0
same,Bedstraw plant response rating,bedstraw; [5],0
same,Bedstraw plant response rating,bedstraw; [6],0
same,Bedstraw plant response rating,bedstraw; [7],0
same,Bedstraw plant response rating (0 to 10 scale),bedstraw; [8],0
same,Bedstraw plant response rating,bedstraw; [9],0
same,Bedstraw plant response rating,bedstraw; [12],0
same,Bedstraw plant response rating,bedstraw; [10],0
same,"Plant response rating, Bedstraw",bedstraw; [11],0
same,Ducksalad plant response rating,duck salad; [1],0
same,Ducksalad plant response rating,duck salad; [2],0
same,Ducksalad plant response rating,duck salad; [3],0
same,"Plant response rating, Ducksalad",duck salad; [4],0
same,Barnyardgrass plant response rating,bamyardgrass; [1],0
same,Barnyardgrass plant response rating,bamyardgrass; [2],0
same,Barnyardgrass plant response rating,bamyardgrass; [3],0
same,"Plant response rating, Barnyardgrass",bamyardgrass; [4],0
same,S. Flatsedge plant response rating,"smallflower flatsedge; Postemergence (flood test species), Rate 125 g/ha",0
same,S. Flatsedge plant response rating,"smallflower flatsedge; Rate 62 g/ha, Postemergence section, flood test species",0
same,"Plant response rating, S. Flatsedge",smallflower flatsedge; [4],0
same,Morningglory plant response rating,morningglory; [5],0
same,Morningglory plant response rating,morningglory; [6],0
same,Morningglory plant response rating,morningglory; [7],0
same,Morningglory plant response rating (0 to 10 scale),morningglory; [8],0
same,Morningglory plant response rating,morningglory; [9],0
same,Morningglory plant response rating,morningglory; [12],0
same,Morningglory plant response rating,morningglory; [10],0
same,"Plant response rating, Morningglory",morningglory; [11],2
